Holding throughout (type): binding
The subject of experiment [1] is murine anti-PDC monoclonal antibody 2H4. The experiment is described as follows: xenobiotic-peptide-agarose microarray, reactivity of mAb 2H4. To be noted: xenobiotic or lipoic acid coupled to PDC peptide-agarose. The text has this: Synthesis of mimeotopes and coupling with peptide-agarose conjugate. Carboxylic acid derivatives of twenty-three xenobiotic compounds were used in this study. Compounds 1-19 were synthesized as described in Long, S. A. et al. J. Immunol. 2001, 167:2956 which is herein incorporated by reference in its entirety. The carboxylic acid derivatives are then reacted with NHS to form the corresponding NHS esters. These 23 compounds, in addition to lipoic acid with NHS ester, were coupled to the lysine residue on the PDC-E2 peptide-agarose conjugate as follows. Briefly, 0.4 mg of the PDC-E2 peptide-agarose conjugate and 10 μmol of each of the NHS esters were mixed in 40 μl of DMSO. Mixtures were incubated at room temperature for 2 hours. To ensure complete coupling, a quantitative ninhydrin test at 570 nm was performed.
(§1) Preparation of microarray and analysis of immunoreactivity. Xenobiotic compounds-peptide-agarose mixture were diluted (0.1%) in 0.1 M Na2CO3/NaHCO3 buffer (p)H 9.0), and transferred to 96 well plates. Thereafter mixtures were spotted onto glass slides (Mercedes Medical, Florida) using the Affymetrix 417 Microarrayer (Affymetrix, Santa Clara, Calif.). Each sample was spotted in triplicate, with a spot size of 150 μm in diameter. Spotted microarrays were stored at 4° C. until use. Before use, microarrays were blocked with 3% non-fat dry milk in PBS buffer for 1 hour at room temperature, and individual slides were thereafter incubated with diluted antibody samples (rabbit sera 1:250, murine anti-PDC monoclonal antibody 1:1) in 1 ml of blocking buffer (3% non-fat dry milk in PBS with 0.05% tween-20) (PBST) for 1 hour at room temperature. After thorough washes with PBST, 1 ml of the Cy3 conjugated secondary antibody (1 μg/ml) (Zymed Laboratories Inc. San Francisco, Calif.) in blocking buffer was added to each slide and incubated at room temperature for 30 min. Subsequently slides were washed in PBST for 10 min and in water for 15 sec. […] Mixtures of xenobiotics and agarose were also spotted and analyzed as controls. […]

The subject of experiment [2] is rabbit sera IgG. Kind of experiment: ELISA of rabbit sera IgG reactivity to small molecule-peptide-agarose conjugates. To be noted: sera (n=5) one month post-immunization, serially diluted; dilution of 1:6750 or lower; on PDC-E2 peptide. The method, then:
Comparison between ELISA and microarray assay. Rabbit sera (n=5) at one month post-immunization were serially diluted (1:250, 1:750, 1:2250, 1:6750 and 1:20250) and IgG reactivity to small molecule-peptide-agarose conjugates were determined by both the ELISA and microarray assay. Briefly, ELISA plates were coated with 50 μl of each individual xenobiotic compounds-peptide-agarose mixture in DMSO (1 mg/ml) for 2 hours at room temperature, then antigens were removed and plates dried overnight at room temperature. Dried ELISA plates were thereafter blocked with 3% non-fat dry milk in PBS and incubated with serially diluted rabbit sera for 1 hour at room temperature. After washing, the plates were incubated with HRP conjugated mouse anti-rabbit IgG (Zymed, San Francisco, Calif.) antibodies for 30 min at room temperature, washed and incubated with 2,2′-azino-bis(3-ethylbenzthiazoline-6-sulfonic acid) containing hydrogen peroxide (Kirkegaard & Perry Laboratories, Inc, MD). Likewise, IgG reactivity of rabbit sera at 0, 1, 6, 12 and 22 months post-immunization against recombinant human PDC-E2 protein (see Leung, P. S. et al. J. Immunol. 2003, 170:5326) and KLH (Sigma, St. Louis, Mo.) was determined at 1:100 sera dilution by standard ELISA.
Validation of peptide microarray assay. To validate the microarray assay, data obtained using the microarray and ELISA were compared. Rabbit sera (n=5) at one month post-immunization with human recombinant PDC-E2 were serially diluted and their IgG reactivity against 6-bromohexanoate, compound 9, lipoic acid on PDC-E2 peptide and non-lipoylated native PDC-E2 peptide were determined by both ELISA and microarray assay (FIG. 13). […] To validate the sensitivity of the microarray, four different concentrations (0.1%, 0.03%, 0.01% and 0.004%) of HA peptide ([…]) were spotted. Individual arrays were incubated with murine monoclonal anti-HA antibody or normal murine IgG followed by secondary antibody (goat anti-murine IgG) conjugated to Cy3.
On the technique in general: ELISA stands for enzyme-linked immunosorbent assay.

Experiment [3] concerns rabbit sera IgG. The experiment is described as follows: microarray assay of rabbit sera IgG reactivity to small molecule-peptide-agarose conjugates. To be noted: sera (n=5) one month post-immunization, serially diluted; dilution of 1:6750 or lower; on PDC-E2 peptide. The method, then: as §1, with “min.” for “min. Subsequently slides were washed in PBST for 10 min and in water for 15 sec.”
Comparison between ELISA and microarray assay. Rabbit sera (n=5) at one month post-immunization were serially diluted (1:250, 1:750, 1:2250, 1:6750 and 1:20250) and IgG reactivity to small molecule-peptide-agarose conjugates were determined by both the ELISA and microarray assay. […] Likewise, IgG reactivity of rabbit sera at 0, 1, 6, 12 and 22 months post-immunization against recombinant human PDC-E2 protein (see Leung, P. S. et al. J. Immunol. 2003, 170:5326) and KLH (Sigma, St. Louis, Mo.) was determined at 1:100 sera dilution by standard ELISA.
Validation of peptide microarray assay. […] Rabbit sera (n=5) at one month post-immunization with human recombinant PDC-E2 were serially diluted and their IgG reactivity against 6-bromohexanoate, compound 9, lipoic acid on PDC-E2 peptide and non-lipoylated native PDC-E2 peptide were determined by both ELISA and microarray assay (FIG. 13). […]

The subject of experiment [4] is murine monoclonal anti-HA antibody. The experiment is described as follows: HA peptide microarray sensitivity validation with anti-HA monoclonal antibody.

Take `O=C(O)CCCCCBr` [6-bromohexanoate]: the “reactivity of mAb 2H4” value in experiment [1] is recorded as “bound strongly”. The “rabbit sera IgG reactivity, ELISA” value in the experiment on rabbit sera IgG [2] is on record as “dilution dependent response”. Also, the “rabbit sera IgG reactivity, microarray assay” value in the experiment on rabbit sera IgG [3] is reported as “dilution dependent response”.

Take YPYDVPDYA [HA peptide]: the “anti-HA antibody concentration giving dose dependent response” value in experiment [4] (HA peptide spotted at 0.1%, 0.03%, 0.01%) is not below 5 ng/mL. Besides, in experiment [4] (lowest concentration of HA (0.004%)), the “anti-HA antibody concentration required” value is more than 50 ng/mL.

As to “DKATIGFEVQEE [non-lipoylated native PDC peptide, 12 mer PDC-E2 peptide on agarose, without xenobiotic or lipoic acid]”, the “reactivity of mAb 2H4” value in experiment [1] was “Weak reactivity”. Also, the “rabbit sera IgG reactivity, ELISA” value in the experiment with rabbit sera IgG [2] is given as “dilution dependent response”. Further, the “rabbit sera IgG reactivity, microarray assay” value in the experiment on rabbit sera IgG [3] is recorded as “dilution dependent response”.

Regarding `O=C(O)CCCC[C@@H]1CCSS1` (racemic) [lipoic acid], the “reactivity of mAb 2H4” value in experiment [1] is “bound strongly”. In the experiment with rabbit sera IgG [2], the “rabbit sera IgG reactivity, ELISA” value is “dilution dependent response”. Besides, the “rabbit sera IgG reactivity, microarray assay” value with rabbit sera IgG [3] is given as “dilution dependent response”.
